# Active and inactive are the calls of the source. The calls are words filed in the database; no cut-off is given here.
# Tests used:
# [1] = system: HCT-116; experiment: Induction of spliceosome function impairment in human HCT-116 cells assessed as increase in NCKAP1L RI transcript at 1 to 10 uM incubated for 12 hrs by qRT-PCR analysis; type: functional, cell-based; conditions: dose 1-10 µM
# [2] = system: K562; experiment: Effect on RNA splicing in human K562 cells assessed as CEP192 gene retention of introns incubated for 12 hrs by PCR analysis; type: functional, cell-based; conditions: dose 0.1-10 µM
# [3] = system: HCT-116; experiment: Induction of cell cycle arrest in human HCT-116 cells assessed as accumulation at G2/M phase at 1 uM incubated for 48 hrs by PI staining based flow cytometry relative to control; type: functional
# [4] = Effect on RNA splicing in human K562 cells assessed as number of skipping exons at 2 uM incubated for 12 hrs by RNA-seq analysis; type: functional
# [5] = system: MOLM-13; experiment: Antiproliferative activity against human MOLM-13 cells assessed as inhibition of cell growth incubated for 4 days by CCK8 assay; type: functional, cell-based; conditions: time 4.0 day
# [6] = system: Kasumi 1; experiment: Induction of RBM39 degradation in human Kasumi 1 cells incubated for 24 hrs by Western blot analysis; type: cell-based
# [7] = system: HCT-116; experiment: Antitumor activity against human HCT-116 cells xenografted in BALB/c nude mouse at 50 mg/kg, po bid treated for 17 days relative to control; type: functional; conditions: HCT-116, 408 h, time 17 day, read-out: TGI
# [8] = system: Kasumi 1; experiment: Effect on RNA splicing in human Kasumi 1 cells assessed as CEP192 gene skipping exons incubated for 12 hrs by PCR analysis; type: functional, cell-based; conditions: dose 0.1-10 µM
# [9] = system: RS4;11; experiment: Induction of RBM39 degradation in human RS4;11 cells incubated for 24 hrs by Western blot analysis; type: cell-based
# [10] = system: HCT-116; experiment: Effect on RNA splicing in human HCT-116 cells assessed as CEP192 gene skipping exons up to 10 uM by PCR analysis; type: functional, cell-based; conditions: time 1-24 hrs
# [11] = system: HL-60; experiment: Induction of RBM39 degradation in human HL-60 cells incubated for 24 hrs by Western blot analysis; type: cell-based
# [12] = system: HCT-116; experiment: Induction of spliceosome function impairment in human HCT-116 cells assessed as fold decrease in ZNF207 exon8-exon9 RNA level at 1 to 10 uM incubated for 12 hrs by qRT-PCR analysis relative to control; type: functional; conditions: dose 1-10 µM
# [13] = system: HCT-116; experiment: Effect on RNA splicing in human HCT-116 cells assessed as CEP192 gene skipping exons incubated for 12 hrs by PCR analysis; type: functional, cell-based; conditions: dose <= 10.0 µM
# [14] = Effect on RNA splicing in human K562 cells assessed as retention of introns at 2 uM incubated for 12 hrs by RNA-seq analysis relative to control; type: functional
# [15] = system: MV4-11; experiment: Antiproliferative activity against human MV4-11 cells assessed as inhibition of cell growth incubated for 4 days by CCK8 assay; type: functional, cell-based; conditions: time 4.0 day
# [16] = system: RS4-11; experiment: Effect on RNA splicing in human RS4;11 cells assessed as CEP192 gene retention of introns incubated for 12 hrs by PCR analysis; type: functional, cell-based; conditions: dose 0.1-10 µM
# [17] = system: HCT-116; experiment: Effect on DCAF15 expression in human HCT-116 cells at 0.1 to 5 uM incubated for 24 hrs by Western blot analysis; type: functional, cell-based; conditions: dose 0.1-5 µM
# [18] = system: HCT-116; experiment: Induction of cell cycle arrest in human HCT-116 cells assessed as accumulation at G2/M phase at 1 uM incubated for 24 hrs by PI staining based flow cytometry relative to control; type: functional
# [19] = Effect on RNA splicing in human K562 cells assessed as mutually exclusive exons at 2 uM incubated for 12 hrs by RNA-seq analysis relative to control; type: functional
# [20] = system: HCT-116; experiment: Induction of spliceosome function impairment in human HCT-116 cells assessed as fold increase in PRPF38A RI transcript at 1 to 10 uM incubated for 12 hrs by qRT-PCR analysis relative to control; type: functional; conditions: dose 1-10 µM
# [21] = system: HCT-116; experiment: Induction of spliceosome function impairment in human HCT-116 cells assessed as fold increase in NCKAP1L RI transcript at 1 to 10 uM incubated for 12 hrs by qRT-PCR analysis relative to control; type: functional; conditions: dose 1-10 µM
# [22] = system: MOLM-13; experiment: Effect on RNA splicing in human MOLM-13 cells assessed as CEP192 gene retention of introns incubated for 12 hrs by PCR analysis; type: functional, cell-based; conditions: dose 0.1-10 µM
# [23] = Effect on RNA splicing in human K562 cells assessed as number of retention of introns at 2 uM incubated for 12 hrs by RNA-seq analysis; type: functional
# [24] = Effect on RNA splicing in human K562 cells assessed as alternative 5' splice sites at 2 uM incubated for 12 hrs by RNA-seq analysis relative to control; type: functional
# [25] = system: K562; experiment: Induction of RBM39 degradation in human K562 cells incubated for 24 hrs by Western blot analysis; type: cell-based; conditions: dose 1-10 µM
# [26] = system: HCT-116; experiment: Induction of cell cycle arrest in human HCT-116 cells assessed as accumulation at G2/M phase at 1 uM incubated for 72 hrs by PI staining based flow cytometry relative to control; type: functional
# [27] = system: HL-60; experiment: Effect on RNA splicing in human HL-60 cells assessed as CEP192 gene skipping exons incubated for 12 hrs by PCR analysis; type: functional, cell-based; conditions: dose 0.1-10 µM
# [28] = system: MV4-11; experiment: Effect on RNA splicing in human MV4-11 cells assessed as CEP192 gene skipping exons incubated for 12 hrs by PCR analysis; type: functional, cell-based; conditions: dose 0.1-10 µM
# [29] = system: HCT-116; experiment: Induction of RBM39 degradation in human HCT-116 cells at 1 uM incubated for 3 to 6 hrs by Western blot analysis; type: cell-based; conditions: time 3-6 hrs
# [30] = system: Kasumi 1; experiment: Antiproliferative activity against human Kasumi 1 cells assessed as inhibition of cell growth incubated for 4 days by CCK8 assay; type: functional, cell-based; conditions: time 4.0 day
# [31] = system: K562; experiment: Effect on RNA splicing in human K562 cells assessed as CEP192 gene skipping exons incubated for 12 hrs by PCR analysis; type: functional, cell-based; conditions: dose 0.1-10 µM
# [32] = system: HL-60; experiment: Effect on RNA splicing in human HL-60 cells assessed as CEP192 gene retention of introns incubated for 12 hrs by PCR analysis; type: functional, cell-based; conditions: dose 0.1-10 µM
# [33] = system: HCT-116; experiment: Antitumor activity against human HCT-116 cells xenografted in BALB/c nude mouse at 150 mg/kg, po qd treated for 17 days relative to control; type: functional; conditions: HCT-116, 408 h, time 17 day, read-out: TGI
# [34] = Effect on RNA splicing in human K562 cells assessed as number of alternative 3' splice sites at 2 uM incubated for 12 hrs by RNA-seq analysis; type: functional
# [35] = system: HCT-116; experiment: Effect on RNA splicing in human HCT-116 cells assessed as CEP192 gene retention of introns at 2 uM incubated for 12 hrs by RNA-seq analysis; type: functional, cell-based
# [36] = system: HCT-116; experiment: Effect on RNA splicing in human HCT-116 cells assessed as CEP192 gene skipping exons at 2 uM incubated for 12 hrs by RNA-seq analysis; type: functional, cell-based
# [37] = system: HCT-116; experiment: Induction of spliceosome function impairment in human HCT-116 cells assessed as fold increase in CUL4A RI transcript at 1 to 10 uM incubated for 12 hrs by qRT-PCR analysis relative to control; type: functional; conditions: dose 1-10 µM
# [38] = system: CEM/C1; experiment: Effect on RNA splicing in human CEM/C1 cells assessed as CEP192 gene skipping exons incubated for 12 hrs by PCR analysis; type: functional, cell-based; conditions: dose 0.1-10 µM
# [39] = system: K562; experiment: Antiproliferative activity against human K562 cells assessed as inhibition of cell growth incubated for 4 days by CCK8 assay; type: functional, cell-based; conditions: time 4.0 day
structure (smiles),measurement,setting,value
NS(=O)(=O)c1ccc(S(=O)(=O)Nc2cccc3c(Cl)c[nH]c23)cc1 [INDISULAM],Activity,[1],Active
Cc1ccc(NS(=O)(=O)c2cccc(NC(=O)C(=O)N3CCC[C@@H]3CO)c2)c2[nH]cc(C#N)c12,Activity,[2],Dose-dependent-effect; Observed Retention Of Introns Between Exons 27 And 28
same,Activity,[3],58%
same,Activity,[4],12285
same,inhibition,[5],Active
same,Activity,[6],Dose-dependent-effect
same,inhibition in vivo at 50 mg/kg,[7],35%
same,Activity,[8],"Dose-dependent-effect; Observed Skipping Of Exons 42, 28 And 13"
same,Activity,[9],Dose-dependent-effect
same,Activity,[10],"Time-dependent-effect; Observed Skipping Of Exons 42, 28 And 13"
same,Activity,[11],Dose-dependent-effect
same,fold change (FC),[12],10
same,Activity,[13],"Dose-dependent-effect; Observed Skipping Of Exons 42, 28 And 13"
same,Activity,[14],8.4%
same,inhibition,[15],Active
same,Activity,[16],Dose-dependent-effect; Observed Retention Of Introns Between Exons 27 And 28
same,Activity,[17],inactive
same,Activity,[18],33%
same,Activity,[19],10.3%
same,fold change (FC),[20],3
same,fold change (FC),[21],3
same,Activity,[22],Dose-dependent-effect; Observed Retention Of Introns Between Exons 27 And 28
same,Activity,[23],1454
same,Activity,[24],3.6%
same,Activity,[25],Dose-dependent-effect
same,Activity,[26],66%
same,Activity,[27],"Dose-dependent-effect; Observed Skipping Of Exons 42, 28 And 13"
same,Activity,[28],"Dose-dependent-effect; Observed Skipping Of Exons 42, 28 And 13"
same,Activity,[29],Active; Compound Exhibited Its Efficiency Steadily Increasing From 3 To 48 Hrs
same,inhibition,[30],Active
same,Activity,[31],"Dose-dependent-effect; Observed Skipping Of Exons 42, 28 And 13"
same,Activity,[32],Dose-dependent-effect; Observed Retention Of Introns Between Exons 27 And 28
same,inhibition in vivo at 150 mg/kg,[33],72%
same,Activity,[34],1232
same,Activity,[35],Active; Observed Retention Of Introns Between Exons 27 And 28
same,Activity,[36],"Active; Observed Skipping Of Exons 42, 28 And 13"
same,fold change (FC),[37],3
same,Activity,[38],"Dose-dependent-effect; Observed Skipping Of Exons 42, 28 And 13"
same,inhibition,[39],Active
